For 25 compounds, IC50 results are on record in patent US9670231B2, “Fused tricyclic amide compounds as multiple kinase inhibitors” (BEIGENE, LTD., priority 2013, dated 2017).

Bounds are passed on as bounds.

Assay type in all cases: biochemical
The target of one assay is B-Raf (V600E) (Homo sapiens (Human), UniProt P15056, V600E). In words: Raf IC50 assay, TR-FRET, B-Raf (V600E). As to conditions: 0.1 mM ATP; read-out: IC50 BRAF-V600E. The protocol:
The enzyme was incubated with the compounds disclosed herein at room temperature for 60 minutes and the reactions were initiated by the addition of ATP and GST-MEK1. After reaction at room temperature for 60 minutes, an equal volume of stop/detection solution was added according to the manufacture's instruction (CisBio Bioassays). […] The IC50 for each compound was derived from fitting the dose-response % inhibition data to the four-parameter logistic model by Graphpad Prism software.
Background: Time-resolved FRET reads energy transfer from a long-lived donor to a nearby acceptor.

The target of a further assay is WT EGFR kinase domain (Homo sapiens (Human), UniProt P00533). In words: EGFR enzymatic assay, TR-FRET, WT EGFR. The method, then:
(§1) Compounds disclosed herein were tested against WT EGFR kinase domain (aa.669-1210, Carna Biosciences, 08-115), EGFR T790M/L858R kinase domain (aa.669-1210, Carna Biosciences, 08-510) and EGFR L858R kinase domain (aa.669-1210, Carna Biosciences, 08-502) in assays based on time-resolved fluorescence-resonance energy transfer methodology. The assay was carried out in 384-well low volume black plate in a reaction mixture containing EGFR kinases, 20 LM for EGFR WT and T790M/L858R, and 125 LM for EGFR L858R), biotin-TK substrate and 0-5 LM compounds in buffer containing 50 mM HEPES pH7.5, 10 mM MgCl2, 1 mM EGTA, 0.01% Brij-35, 2.5 mM DTT, 0.1% BSA. The kinase was incubated with the compounds disclosed herein at room temperature for 120 minutes and the reaction was initiated by the addition of ATP and biotin-TK substrate. After reaction at room temperature for 30 minutes, an equal volume of stop/detection solution was added according to the manufacture's instruction (CisBio Bioassays). The stop/detection solution contained TK-Antibody-Cryptate and Streptavidin-XL665 in buffer containing 25 mM Tris pH7.4, 400 mM KF, 50 mM EDTA, 0.01% BSA, 0.01% Triton X-100. Plates were sealed and incubated at room temperature for 1 hour, and the TR-FRET signals were read on BMG PHERAstar FS instrument. The IC50 of an inhibitor was derived from fitting the % inhibition data at each compound concentration to the four-parameter logistic equation by Graphpad Prism software.

For a further assay, the target named is EGFR L858R kinase domain (Homo sapiens (Human), UniProt P00533, L858R). Briefly: EGFR enzymatic assay, TR-FRET, EGFR L858R. The protocol:
as §1

For assay [1], the target named is EGFR T790M/L858R kinase domain (Homo sapiens (Human), UniProt P00533, L858R/T790M). In words: EGFR enzymatic assay, TR-FRET, EGFR T790M/L858R. The protocol: as §1
Sequence of EGFR T790M/L858R kinase domain (P00533 669-1210 T790M/L858R): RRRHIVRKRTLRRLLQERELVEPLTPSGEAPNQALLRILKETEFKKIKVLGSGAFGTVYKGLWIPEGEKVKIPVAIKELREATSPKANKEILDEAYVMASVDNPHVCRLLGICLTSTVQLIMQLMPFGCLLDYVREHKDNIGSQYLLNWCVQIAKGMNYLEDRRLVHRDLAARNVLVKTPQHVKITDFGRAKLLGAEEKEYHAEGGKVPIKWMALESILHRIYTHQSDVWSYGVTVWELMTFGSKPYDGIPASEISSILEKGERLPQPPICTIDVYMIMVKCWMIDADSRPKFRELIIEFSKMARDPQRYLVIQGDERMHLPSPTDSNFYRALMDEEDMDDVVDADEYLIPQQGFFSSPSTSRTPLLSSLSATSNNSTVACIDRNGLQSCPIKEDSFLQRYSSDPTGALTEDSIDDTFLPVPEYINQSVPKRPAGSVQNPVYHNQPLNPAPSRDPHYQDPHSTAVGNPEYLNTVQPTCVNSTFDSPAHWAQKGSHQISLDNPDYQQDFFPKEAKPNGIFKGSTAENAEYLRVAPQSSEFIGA

Sequence of B-Raf (V600E) (P15056 whole entry V600E): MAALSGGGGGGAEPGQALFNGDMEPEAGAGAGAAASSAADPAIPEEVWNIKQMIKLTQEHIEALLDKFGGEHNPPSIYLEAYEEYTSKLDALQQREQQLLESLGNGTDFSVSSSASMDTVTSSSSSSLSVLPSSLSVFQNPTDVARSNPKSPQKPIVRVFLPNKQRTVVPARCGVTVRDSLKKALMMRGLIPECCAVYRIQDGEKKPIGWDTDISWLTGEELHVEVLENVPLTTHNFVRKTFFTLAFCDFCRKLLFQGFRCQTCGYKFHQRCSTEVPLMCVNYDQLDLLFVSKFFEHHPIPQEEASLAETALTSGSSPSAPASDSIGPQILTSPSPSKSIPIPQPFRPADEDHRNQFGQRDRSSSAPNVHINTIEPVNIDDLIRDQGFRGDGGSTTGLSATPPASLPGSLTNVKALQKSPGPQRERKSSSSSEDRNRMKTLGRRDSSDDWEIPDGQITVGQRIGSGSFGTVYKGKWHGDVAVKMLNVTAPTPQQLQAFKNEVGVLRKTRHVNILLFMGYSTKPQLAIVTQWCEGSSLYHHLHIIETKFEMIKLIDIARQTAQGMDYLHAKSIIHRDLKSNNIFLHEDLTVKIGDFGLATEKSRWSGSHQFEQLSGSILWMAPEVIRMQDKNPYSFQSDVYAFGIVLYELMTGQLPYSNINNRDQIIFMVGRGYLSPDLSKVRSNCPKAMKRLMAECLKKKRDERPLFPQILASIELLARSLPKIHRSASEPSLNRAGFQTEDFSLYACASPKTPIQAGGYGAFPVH
Sequence of WT EGFR kinase domain (P00533 669-1210): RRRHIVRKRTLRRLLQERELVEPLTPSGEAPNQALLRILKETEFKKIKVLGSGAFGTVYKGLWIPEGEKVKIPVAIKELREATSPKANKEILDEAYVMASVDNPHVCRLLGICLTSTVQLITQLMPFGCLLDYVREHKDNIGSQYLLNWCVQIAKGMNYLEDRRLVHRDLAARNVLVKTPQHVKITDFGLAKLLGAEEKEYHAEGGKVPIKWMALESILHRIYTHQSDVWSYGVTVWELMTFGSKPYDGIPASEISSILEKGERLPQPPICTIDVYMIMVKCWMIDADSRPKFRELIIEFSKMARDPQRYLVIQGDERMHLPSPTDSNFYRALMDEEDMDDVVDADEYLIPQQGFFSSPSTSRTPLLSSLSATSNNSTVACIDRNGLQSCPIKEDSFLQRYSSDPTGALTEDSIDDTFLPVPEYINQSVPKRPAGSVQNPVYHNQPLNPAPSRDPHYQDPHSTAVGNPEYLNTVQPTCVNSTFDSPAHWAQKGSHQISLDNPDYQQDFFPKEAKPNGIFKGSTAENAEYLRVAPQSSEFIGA
Sequence of EGFR L858R kinase domain (P00533 669-1210 L858R): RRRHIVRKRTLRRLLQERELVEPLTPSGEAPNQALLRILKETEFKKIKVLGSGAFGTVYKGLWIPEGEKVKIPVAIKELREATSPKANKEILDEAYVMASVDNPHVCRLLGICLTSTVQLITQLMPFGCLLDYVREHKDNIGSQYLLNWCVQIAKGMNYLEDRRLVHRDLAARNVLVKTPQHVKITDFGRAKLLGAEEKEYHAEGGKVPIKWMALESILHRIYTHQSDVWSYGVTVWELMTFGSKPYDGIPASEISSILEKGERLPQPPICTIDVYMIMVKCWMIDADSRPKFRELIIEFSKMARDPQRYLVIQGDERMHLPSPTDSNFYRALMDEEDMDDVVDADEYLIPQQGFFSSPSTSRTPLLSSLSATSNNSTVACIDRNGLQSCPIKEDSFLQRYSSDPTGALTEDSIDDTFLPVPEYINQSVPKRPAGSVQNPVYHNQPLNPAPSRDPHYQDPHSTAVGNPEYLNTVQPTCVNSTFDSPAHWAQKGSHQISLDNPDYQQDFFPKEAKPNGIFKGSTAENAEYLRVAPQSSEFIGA

As to `O=C1CCc2c(Oc3ccc4c(c3)[C@H]3[C@H](NC(=O)c5ccc(CN6CCN(CC(F)(F)F)CC6)c(C(F)(F)F)c5)[C@H]3O4)ccnc2N1` [Compound 1.2], the IC50 – broadly, the concentration needed to halve the response being measured – amounted to 27 nM at B-Raf (V600E), 249 nM against WT EGFR kinase domain, 292 nM against EGFR L858R kinase domain and 813 nM in assay [1].
Regarding `CCN1CCN(Cc2cc(F)cc(C(=O)N[C@@H]3[C@H]4Oc5ccc(Oc6ccnc7c6CCC(=O)N7)cc5[C@@H]34)c2)CC1` [Compound 1.6], the IC50 at B-Raf (V600E) stood at 1.7 nM.
For `CN1CCN(Cc2ccc(C(=O)N[C@@H]3[C@H]4Oc5ccc(Oc6ccnc7c6CCC(=O)N7)cc5[C@@H]34)cc2)CC1` [Compound 1.11], the concentration for half-maximal inhibition (IC50) on B-Raf (V600E) came out at 5.9 nM; at WT EGFR kinase domain, 1.28 nM; against EGFR L858R kinase domain, 0.57 nM; in assay [1], 18 nM.
The corresponding values for `C[C@@H]1CN(Cc2ccc(C(=O)N[C@@H]3[C@H]4Oc5ccc(Oc6ccnc7c6CCC(=O)N7)cc5[C@@H]34)cc2C(F)(F)F)C[C@H](C)O1` [Compound 1.13] are 86 nM, 59 nM, 11 nM and 47 nM.
Take `CCN1CCN(Cc2ccc(C(=O)N[C@@H]3[C@H]4Oc5ccc(Oc6ccnc7c6CCC(=O)N7)cc5[C@@H]34)cc2Cl)CC1` [Compound 1.18]: the IC50 on B-Raf (V600E) is 5.7 nM.
`CCN1CCN(Cc2ccc(C(=O)N[C@@H]3[C@H]4Oc5ccc(Oc6ccnc7c6CCC(=O)N7)cc5[C@@H]34)cc2Br)CC1` [Compound 1.19]: the IC50 on B-Raf (V600E) was 5.4 nM; against WT EGFR kinase domain it was 0.55 nM; at EGFR L858R kinase domain, 0.27 nM; in assay [1], 1.1 nM.
For `CN1CCN(Cc2ccc(C(=O)N[C@@H]3[C@H]4Oc5ccc(Oc6ccnc7c6CCC(=O)N7)cc5[C@@H]34)cc2F)CC1` [Compound 1.21], the half-maximal inhibitory concentration (IC50) on B-Raf (V600E) amounted to 8.8 nM; against WT EGFR kinase domain it was 1.3 nM; at EGFR L858R kinase domain it was 0.28 nM; in assay [1], 3 nM.
`CN1CCN(Cc2ccc(C(=O)N[C@@H]3[C@H]4Oc5ccc(Oc6ccnc7c6CCC(=O)N7)cc5[C@@H]34)cc2Cl)CC1` [Compound 1.22]: the IC50 was determined as 4.8 nM on B-Raf (V600E), 0.8 nM against WT EGFR kinase domain, 0.23 nM at EGFR L858R kinase domain and 0.47 nM in assay [1].
The matching figures for `CN1CCN(Cc2ccc(C(=O)N[C@@H]3[C@H]4Oc5ccc(Oc6ccnc7c6CCC(=O)N7)cc5[C@@H]34)cc2Br)CC1` [Compound 1.23]: 5.4 nM, 1.1 nM, 0.24 nM and 0.52 nM.
For the compound `CCCCCCCCCCCC(=O)N[C@@H]1[C@H]2Oc3ccc(Oc4ccnc5c4CCC(=O)N5)cc3[C@@H]12` [Compound 1.28], the IC50 worked out at 809 nM on WT EGFR kinase domain, 287 nM against EGFR L858R kinase domain and 885 nM in assay [1].
Take `C[C@@H]1CN(Cc2ccc(C(=O)N[C@@H]3[C@H]4Oc5ccc(Oc6ccnc7c6CCC(=O)N7)cc5[C@@H]34)cc2C(F)(F)F)CCN1` [Compound 1.30]: the IC50 came out at 0.69 nM against WT EGFR kinase domain, 0.46 nM against EGFR L858R kinase domain and 2.7 nM in assay [1].
Take `CN1CCN(Cc2ccc(C(=O)N[C@H]3[C@@H]4Oc5ccc(Oc6ccnc7c6CCC(=O)N7)cc5[C@H]34)cc2C(F)(F)F)CC1` [Compound 1.34]: the IC50 at B-Raf (V600E) turned out to be 11 nM; on WT EGFR kinase domain it was 254 nM; against EGFR L858R kinase domain, 29 nM; in assay [1] it was 119 nM.
The corresponding values for `CN(C)[C@@H]1CCCN(c2ccc(C(=O)N[C@@H]3[C@H]4Oc5ccc(Oc6ccnc7c6CCC(=O)N7)cc5[C@@H]34)cc2C(F)(F)F)C1` [Compound 1.48] are 16 nM, 1.7 nM, 0.91 nM and 5.3 nM.
In the case of `CCN1CCN(c2ccc(C(=O)N[C@@H]3[C@H]4Oc5ccc(Oc6ccnc7c6CCC(=O)N7)cc5[C@@H]34)cc2C(F)(F)F)CC1` [Compound 1.50], the IC50 was found to be 11 nM at B-Raf (V600E), 6.3 nM against WT EGFR kinase domain, 7.1 nM against EGFR L858R kinase domain and 25 nM in assay [1].
Take `CCN1CCN(Cc2ccc(C(=O)NC3C4Oc5c(C)cc(Oc6ccnc7c6CCC(=O)N7)cc5C34)cc2C(F)(F)F)CC1` (centres unmarked) [Compound 1.55, 4-((4-ethylpiperazin-1-yl)methyl)-N-(3-methyl-5-((7-oxo-5,6,7,8-tetrahydro-1,8-naphthyridin-4-yl)oxy)-1a,6b-dihydro-1H-cyclopropa[b]benzofuran-1-yl)-3-(trifluoromethyl)benzamide]: the 50% inhibitory concentration (IC50) came to 18 nM at B-Raf (V600E), 2.2 nM at WT EGFR kinase domain, 0.35 nM at EGFR L858R kinase domain and 0.4 nM in assay [1].
As for `Cc1cc(Oc2ccnc3c2CCC(=O)N3)cc2c1OC1C(NC(=O)c3ccc(CN4CCN(C)CC4)c(C(F)(F)F)c3)C21` (centres unmarked) [Compound 1.56], the IC50 is 21 nM on B-Raf (V600E), 2.5 nM against WT EGFR kinase domain, 0.4 nM at EGFR L858R kinase domain and 0.47 nM in assay [1].
On to `CCN1CCN(Cc2ccc(C(=O)N[C@@H]3[C@H]4Oc5ccc(Oc6ccnc7c6CCC(=O)N7)cc5[C@@H]34)cc2C)CC1` [Compound 1.57, 4-((4-ethylpiperazin-1-yl)methyl)-3-methyl-N-((1S,1aS,6bS)-5-((7-oxo-5,6,7,8-tetrahydro-1,8-naphthyridin-4-yl)oxy)-1a,6b-dihydro-1H-cyclopropa[b]benzofuran-1-yl)benzamide], for which the IC50 on B-Raf (V600E) amounted to 6.4 nM; at WT EGFR kinase domain, 1.5 nM; against EGFR L858R kinase domain it was 0.5 nM; in assay [1], 3.1 nM.
As for `Cc1cc(C(=O)N[C@@H]2[C@H]3Oc4ccc(Oc5ccnc6c5CCC(=O)N6)cc4[C@@H]23)ccc1CN1CCN(C)CC1` [Compound 1.58], the half-inhibitory concentration (IC50) at B-Raf (V600E) is 5.5 nM; against WT EGFR kinase domain, 1.2 nM; against EGFR L858R kinase domain, 0.31 nM; in assay [1], 1.8 nM.
In the case of `Cc1cc(C(=O)N[C@@H]2[C@H]3Oc4ccc(Oc5ccnc6c5CCC(=O)N6)cc4[C@@H]23)ccc1CO` [Compound 1.59, 4-(hydroxymethyl)-3-methyl-N-((1S,1aS,6bS)-5-((7-oxo-5,6,7,8-tetrahydro-1,8-naphthyridin-4-yl)oxy)-1a,6b-dihydro-1H-cyclopropa[b]benzofuran-1-yl)benzamide], the IC50 was 1 nM on B-Raf (V600E), 19 nM against WT EGFR kinase domain, 4.8 nM at EGFR L858R kinase domain and 6.2 nM in assay [1].
As to `O=C1CCc2c(Oc3ccc4c(c3)[C@H]3[C@H](NC(=O)Cc5cccc(C(F)(F)F)c5)[C@H]3O4)ccnc2N1` [Compound 1.60], the IC50 came out at 1.5 nM on B-Raf (V600E), 3450 nM against WT EGFR kinase domain, 949 nM against EGFR L858R kinase domain and 2550 nM in assay [1].
With `O=C1CCc2c(Oc3ccc4c(c3)[C@H]3[C@H](NC(=O)c5ccnc(C(F)(F)F)c5)[C@H]3O4)ccnc2N1` [Compound 1.61], the IC50 on B-Raf (V600E) is 1.5 nM; against WT EGFR kinase domain it was 132 nM; against EGFR L858R kinase domain, 76 nM; in assay [1] it was 237 nM.
The corresponding values for `O=C1CCc2c(Oc3ccc4c(c3)[C@H]3[C@H](NC(=O)c5cncc(C(F)(F)F)c5)[C@H]3O4)ccnc2N1` [Compound 1.62] are 1.3 nM, 42 nM, 28 nM and 114 nM.
`O=C1CCc2c(Oc3ccc4c(c3)[C@H]3[C@H](NC(=O)c5cccc(C(F)(F)F)n5)[C@H]3O4)ccnc2N1` [Compound 1.63]: the IC50 on B-Raf (V600E) came to 2.5 nM; at WT EGFR kinase domain, 1140 nM; on EGFR L858R kinase domain, 296 nM; in assay [1], 234 nM.
Turning to `CCN1CCC(Oc2ccc(C(=O)N[C@@H]3[C@H]4Oc5ccc(Oc6ccnc7c6CCC(=O)N7)cc5[C@@H]34)cc2C(F)(F)F)CC1` [Compound 1.64], the IC50 on B-Raf (V600E) is 12 nM; at WT EGFR kinase domain, 1.1 nM; at EGFR L858R kinase domain, less than 0.25 nM; in assay [1] it was 0.46 nM.
For `CN1C(C)(C)CC(Oc2ccc(C(=O)N[C@@H]3[C@H]4Oc5ccc(Oc6ccnc7c6CCC(=O)N7)cc5[C@@H]34)cc2C(F)(F)F)CC1(C)C` [Compound 1.77, N-((1S,1aS,6bS)-5-((7-oxo-5,6,7,8-tetrahydro-1,8-naphthyridin-4-yl)oxy)-1a,6b-dihydro-1H-cyclopropa[b]benzofuran-1-yl)-4-((1,2,2,6,6-pentamethylpiperidin-4-yl)oxy)-3-(trifluoromethyl)benzamide], the IC50 on B-Raf (V600E) was found to be 13 nM.
